Experimental data as given in PubChem BioAssay (NCI).
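1) Cells in 96-well plates. 2) Compound, 48 h, 5 concentrations. 3) Linear interpolation between surrounding doses. 4) Unreached endpoint = highest concentration. At the GI50, growth is halved. At the TGI there is no net growth.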

Legend:
Assay in all cases: NCI-60 cell line screen, 48 h
ACHN renal = tested on: ACHN renal
TK-10 renal = tested on: TK-10 renal
SNB-19 CNS = tested on: SNB-19 CNS
UACC-62 melanoma = tested on: UACC-62 melanoma
SK-MEL-5 melanoma = tested on: SK-MEL-5 melanoma
HCT-15 colon = tested on: HCT-15 colon
PC-3 prostate = tested on: PC-3 prostate
HCT-116 colon = tested on: HCT-116 colon
RXF 393 renal = tested on: RXF 393 renal
786-0 renal = tested on: 786-0 renal
U251 CNS = tested on: U251 CNS
MALME-3M melanoma = tested on: MALME-3M melanoma
DU-145 prostate = tested on: DU-145 prostate
LOX IMVI melanoma = tested on: LOX IMVI melanoma
T-47D breast = tested on: T-47D breast
MDA-MB-435 = tested on: MDA-MB-435
MDA-MB-231 breast = tested on: MDA-MB-231 breast
NCI-H522 lung = tested on: NCI-H522 lung
SK-MEL-2 melanoma = tested on: SK-MEL-2 melanoma
HOP-92 NSCLC = tested on: HOP-92 NSCLC
UO-31 renal = tested on: UO-31 renal
HOP-62 NSCLC = tested on: HOP-62 NSCLC
HT29 colon = tested on: HT29 colon
CAKI-1 renal = tested on: CAKI-1 renal
MOLT-4 leukemia = tested on: MOLT-4 leukemia
OVCAR-4 ovarian = tested on: OVCAR-4 ovarian
OVCAR-3 ovarian = tested on: OVCAR-3 ovarian
M14 melanoma = tested on: M14 melanoma
SW-620 colon = tested on: SW-620 colon
NCI-H226 lung = tested on: NCI-H226 lung
EKVX NSCLC = tested on: EKVX NSCLC
A498 renal = tested on: A498 renal
IGROV1 ovarian = tested on: IGROV1 ovarian
SR leukemia = tested on: SR leukemia
OVCAR-8 ovarian = tested on: OVCAR-8 ovarian
MDA-N = tested on: MDA-N
KM12 colon = tested on: KM12 colon
BT-549 breast = tested on: BT-549 breast
HL-60(TB) leukemia = tested on: HL-60(TB) leukemia
NCI/ADR-RES ovarian = tested on: NCI/ADR-RES ovarian
A549 NSCLC = tested on: A549 NSCLC
OVCAR-5 ovarian = tested on: OVCAR-5 ovarian
SF-295 CNS = tested on: SF-295 CNS
SN12C renal = tested on: SN12C renal
K-562 leukemia = tested on: K-562 leukemia
UACC-257 melanoma = tested on: UACC-257 melanoma
NCI-H23 lung = tested on: NCI-H23 lung
HCC-2998 colon = tested on: HCC-2998 colon
SK-MEL-28 melanoma = tested on: SK-MEL-28 melanoma
NCI-H460 lung = tested on: NCI-H460 lung
SF-268 CNS = tested on: SF-268 CNS
HS 578T breast = tested on: HS 578T breast
SNB-75 CNS = tested on: SNB-75 CNS
SF-539 CNS = tested on: SF-539 CNS
CCRF-CEM leukemia = tested on: CCRF-CEM leukemia
SK-OV-3 ovarian = tested on: SK-OV-3 ovarian
MCF7 breast = tested on: MCF7 breast
RPMI-8226 leukemia = tested on: RPMI-8226 leukemia
COLO 205 colon = tested on: COLO 205 colon

Molecule `Cc1cc(O)c(C(C)C)cc1NC(=O)Nc1cccc2ccccc12` has a TGI (ACHN renal) of 27.8 µM, a TGI (TK-10 renal) of 32.5 µM and a TGI (SNB-19 CNS) of 30.2 µM. For the same molecule, the TGI (UACC-62 melanoma) was 25.9 µM, the TGI (SK-MEL-5 melanoma) was 27.4 µM and the TGI (HCT-15 colon) was 69.1 µM. It also gave a TGI (PC-3 prostate) of 29.2 µM, a TGI (HCT-116 colon) of 36.6 µM and a TGI (RXF 393 renal) of 29.4 µM. For the same molecule, the TGI (786-0 renal) was 34.6 µM, the TGI (U251 CNS) was 31 µM and the TGI (MALME-3M melanoma) was 40.3 µM. For the same molecule, the TGI (DU-145 prostate) was 28.3 µM, the TGI (LOX IMVI melanoma) was 49.9 µM and the TGI (T-47D breast) was > 100 µM. It also gave a TGI (MDA-MB-435) of 31.1 µM, a TGI (MDA-MB-231 breast) of 31.7 µM and a TGI (NCI-H522 lung) of 54.1 µM. The TGI (SK-MEL-2 melanoma) was 30.4 µM, the TGI (HOP-92 NSCLC) was 40.8 µM and the TGI (UO-31 renal) was 42.9 µM. The TGI (HOP-62 NSCLC) was 30.9 µM, the TGI (HT29 colon) was 36.1 µM and the TGI (CAKI-1 renal) was 30.7 µM. For the same molecule, the TGI (MOLT-4 leukemia) was > 100 µM, the TGI (OVCAR-4 ovarian) was 24.4 µM and the TGI (OVCAR-3 ovarian) was 40.2 µM. The TGI (M14 melanoma) was 40 µM, the TGI (SW-620 colon) was > 100 µM and the TGI (NCI-H226 lung) was 46.7 µM. The TGI (EKVX NSCLC) was 62.7 µM, the TGI (A498 renal) was 26.5 µM and the TGI (IGROV1 ovarian) was 37.7 µM. For the same molecule, the TGI (SR leukemia) was > 100 µM, the TGI (OVCAR-8 ovarian) was > 100 µM and the TGI (MDA-N) was 27.6 µM. For the same molecule, the TGI (KM12 colon) was 38.8 µM, the TGI (BT-549 breast) was 36.1 µM and the TGI (HL-60(TB) leukemia) was > 100 µM. For the same molecule, the TGI (NCI/ADR-RES ovarian) was 76.2 µM, the TGI (A549 NSCLC) was 45.4 µM and the TGI (OVCAR-5 ovarian) was 56.4 µM. For the same molecule, the TGI (SF-295 CNS) was 28.2 µM, the TGI (SN12C renal) was 40.5 µM and the TGI (K-562 leukemia) was > 100 µM. The TGI (UACC-257 melanoma) was 33.4 µM, the TGI (NCI-H23 lung) was 46.3 µM and the TGI (HCC-2998 colon) was 41 µM. For the same molecule, the TGI (SK-MEL-28 melanoma) was 55.8 µM, the TGI (NCI-H460 lung) was 41.4 µM and the TGI (SF-268 CNS) was 40.9 µM. The TGI (HS 578T breast) was 62.6 µM.
`COc1cc[c]([Hg][Cl])cc1` was tested, and the GI50 (SNB-75 CNS) was 1.69 µM, the TGI (SNB-75 CNS) was 4.37 µM and the GI50 (ACHN renal) was 1.81 µM. For the same molecule, the TGI (ACHN renal) was 3.47 µM, the GI50 (TK-10 renal) was 17.5 µM and the TGI (TK-10 renal) was 31.4 µM. It also gave a GI50 (SNB-19 CNS) of 4.59 µM, a TGI (SNB-19 CNS) of 16.6 µM and a GI50 (UACC-62 melanoma) of 4.09 µM. It also gave a TGI (UACC-62 melanoma) of 14.9 µM, a GI50 (SK-MEL-5 melanoma) of 2.71 µM and a TGI (SK-MEL-5 melanoma) of 11.1 µM. The GI50 (HCT-15 colon) was 1.08 µM, the TGI (HCT-15 colon) was 2.36 µM and the GI50 (PC-3 prostate) was 16.2 µM. It also gave a TGI (PC-3 prostate) of 31.8 µM, a GI50 (HCT-116 colon) of 4.49 µM and a TGI (HCT-116 colon) of 18.4 µM. For the same molecule, the GI50 (RXF 393 renal) was 1.76 µM, the TGI (RXF 393 renal) was 3.14 µM and the GI50 (786-0 renal) was 3.76 µM. It also gave a TGI (786-0 renal) of 10.8 µM, a GI50 (U251 CNS) of 1.82 µM and a TGI (U251 CNS) of 3.51 µM. The GI50 (SF-539 CNS) was 3.3 µM, the TGI (SF-539 CNS) was 11.1 µM and the GI50 (MALME-3M melanoma) was 1.88 µM. The TGI (MALME-3M melanoma) was 3.69 µM, the GI50 (DU-145 prostate) was 5.23 µM and the TGI (DU-145 prostate) was 18.2 µM. The GI50 (LOX IMVI melanoma) was 1.42 µM, the TGI (LOX IMVI melanoma) was 2.74 µM and the GI50 (T-47D breast) was 1.68 µM. It also gave a TGI (T-47D breast) of 4.47 µM, a GI50 (MDA-MB-435) of 1.61 µM and a TGI (MDA-MB-435) of 3.2 µM. The GI50 (MDA-MB-231 breast) was 2.19 µM, the TGI (MDA-MB-231 breast) was 4.92 µM and the GI50 (NCI-H522 lung) was 0.45 µM. The TGI (NCI-H522 lung) was 2.61 µM, the GI50 (SK-MEL-2 melanoma) was 4.39 µM and the TGI (SK-MEL-2 melanoma) was 17.4 µM. For the same molecule, the GI50 (HOP-92 NSCLC) was 2.26 µM, the TGI (HOP-92 NSCLC) was 4.01 µM and the GI50 (UO-31 renal) was 14.6 µM. For the same molecule, the TGI (UO-31 renal) was 28.9 µM, the GI50 (CCRF-CEM leukemia) was 1.06 µM and the TGI (CCRF-CEM leukemia) was 5.4 µM. It also gave a GI50 (HOP-62 NSCLC) of 20.4 µM, a TGI (HOP-62 NSCLC) of 37.8 µM and a GI50 (SK-OV-3 ovarian) of 14.2 µM. For the same molecule, the TGI (SK-OV-3 ovarian) was 27.3 µM, the GI50 (HT29 colon) was 5.4 µM and the TGI (HT29 colon) was 61 µM. The GI50 (CAKI-1 renal) was 6.55 µM, the TGI (CAKI-1 renal) was 23 µM and the GI50 (MOLT-4 leukemia) was 1.64 µM. The TGI (MOLT-4 leukemia) was 6.59 µM, the GI50 (OVCAR-4 ovarian) was 1.96 µM and the TGI (OVCAR-4 ovarian) was 11.5 µM. It also gave a GI50 (M14 melanoma) of 1.68 µM, a TGI (M14 melanoma) of 3.87 µM and a GI50 (SW-620 colon) of 1.54 µM. For the same molecule, the TGI (SW-620 colon) was 3.18 µM, the GI50 (NCI-H226 lung) was 22.9 µM and the TGI (NCI-H226 lung) was 50.6 µM. It also gave a GI50 (EKVX NSCLC) of 9.51 µM, a TGI (EKVX NSCLC) of 22.8 µM and a GI50 (A498 renal) of 17.6 µM. For the same molecule, the TGI (A498 renal) was 31.5 µM, the GI50 (IGROV1 ovarian) was 1.53 µM and the TGI (IGROV1 ovarian) was 3.92 µM. For the same molecule, the GI50 (SR leukemia) was 0.245 µM, the TGI (SR leukemia) was 4.13 µM and the GI50 (OVCAR-8 ovarian) was 6.11 µM. For the same molecule, the TGI (OVCAR-8 ovarian) was > 100 µM, the GI50 (MCF7 breast) was 1.01 µM and the TGI (MCF7 breast) was 4.53 µM. The GI50 (KM12 colon) was 14.4 µM, the TGI (KM12 colon) was 27.8 µM and the GI50 (BT-549 breast) was 2.97 µM. It also gave a TGI (BT-549 breast) of 9.16 µM, a GI50 (HL-60(TB) leukemia) of 3.08 µM and a TGI (HL-60(TB) leukemia) of 7.67 µM. The GI50 (NCI/ADR-RES ovarian) was 11.7 µM, the TGI (NCI/ADR-RES ovarian) was > 100 µM and the GI50 (A549 NSCLC) was 23.8 µM. The TGI (A549 NSCLC) was 40.8 µM, the GI50 (OVCAR-5 ovarian) was 20.1 µM and the TGI (OVCAR-5 ovarian) was 37.6 µM. The GI50 (SF-295 CNS) was 15.5 µM, the TGI (SF-295 CNS) was 29.7 µM and the GI50 (RPMI-8226 leukemia) was 3.39 µM. The TGI (RPMI-8226 leukemia) was 14.7 µM, the GI50 (SN12C renal) was 2.51 µM and the TGI (SN12C renal) was 6.17 µM. The GI50 (K-562 leukemia) was 1.84 µM, the TGI (K-562 leukemia) was 6.73 µM and the GI50 (COLO 205 colon) was 2.06 µM. For the same molecule, the TGI (COLO 205 colon) was 4 µM, the GI50 (UACC-257 melanoma) was 4.16 µM and the TGI (UACC-257 melanoma) was 14.5 µM. The GI50 (NCI-H23 lung) was 3.03 µM, the TGI (NCI-H23 lung) was 22.4 µM and the GI50 (HCC-2998 colon) was 13.5 µM. The TGI (HCC-2998 colon) was 27.8 µM, the GI50 (SK-MEL-28 melanoma) was 1.65 µM and the TGI (SK-MEL-28 melanoma) was 3.36 µM. It also gave a GI50 (NCI-H460 lung) of 10.3 µM, a TGI (NCI-H460 lung) of 25.5 µM and a GI50 (SF-268 CNS) of 3.27 µM. It also gave a TGI (SF-268 CNS) of 13.3 µM, a GI50 (HS 578T breast) of 1.96 µM and a TGI (HS 578T breast) of 47.2 µM.
